The values below come from PubChem BioAssay (NCI).

What all share (experiment): inhibition of tumour cell growth, NCI panel, 48 h
In assay [1] the test system is 786-0 renal.
In assay [2] the test system is A549 NSCLC.
Assay [3] concerns HCT-15 colon.
Assay [4] deals with HL-60(TB) leukemia.
Assay [5] concerns HOP-92 NSCLC.
The test system of assay [6] is MDA-MB-231 breast.
Assay [7] has as its system MDA-MB-435.
Assay [8] concerns OVCAR-5 ovarian.
Assay [9] concerns SK-OV-3 ovarian.
Assay [10] has as its system SN12C renal.

Structures are written as SMILES. Values joined by “and” are separate entries in the source; they are usually repeats but may differ in a detail not shown here. Equal entries are not always repeated.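 96-well plates; 48 h exposure; 5 concentrations. Endpoints by linear interpolation between flanking doses. Not reached: highest tested concentration assigned. GI50 marks 50% less growth. TGI marks complete inhibition of growth.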

On to `COC(=O)[C@]12CC[C@@H](C)[C@H](C)[C@@H]1C1=CC[C@@H]3[C@@]4(C)C(C=O)=C[C@@](C)(COC(=O)c5ccco5)C4=CC[C@@]3(C)[C@]1(C)CC2`, for which the GI50 in assay [1] was 2.97 µM; in [2], 3.28 µM; in [3], 1.91 µM; in assay [4], 2.85 µM; in [5], 0.671 µM; in [6], 2.73 µM. Moreover, the GI50 in [7] was 0.0663 µM; in assay [8], 2.32 µM; in assay [9] it was 8.41 µM; in assay [10], 4.04 µM. Also, the TGI is 9.17 µM in [1]; 14 µM in assay [2]; 4.09 µM in [3]; 5.72 µM in assay [4]; 7.71 µM in [5]; 9.47 µM in assay [6]. Besides, the TGI in [7] is 2.96 µM; in assay [8], 6.99 µM; in assay [9], 75.1 µM; in assay [10], above 100 µM.

In the case of `COC(=O)C(Br)(C(=O)OC)C(Br)C(Br)C(Br)c1ccccc1` (centres undefined), the GI50 in assay [1] was 2.72 µM; in assay [2] it was 16.9 µM; in assay [3] it was 2.15 µM; in [4], 2.09 µM; in assay [5], 3.42 µM; in assay [6], 3.11 µM. Also, the GI50 was 2.48 µM in [7], 3.3 µM in [8], 16.8 µM in [9] and 2.16 µM in assay [10]. Moreover, the TGI was found to be 6.7 µM in [1]; 33 µM in assay [2]; 6.15 µM in assay [3]; 6.03 µM in [4]; 12.3 µM in assay [5]; 9.71 µM in assay [6]. Besides, the TGI in assay [7] came out at 7.36 µM; in assay [8], 13 µM; in [9] it was 31.9 µM; in [10] it was 5.3 µM.

Regarding `CCN1Cc2c(/C=C/c3ccccc3)nc3ccc(OC)cc3c2N(c2cccc(Cl)c2)C1`, the GI50 in [1] was 3.17 µM; in assay [2], 1.99 µM; in assay [3], 1.74 µM; in assay [4], 2.08 µM; in assay [5], 1.62 µM; in [6] it was 1.75 µM. Moreover, the GI50 is 1.81 µM in assay [7], 1.49 µM in assay [8], 1.88 µM in [9] and 2.43 µM in [10]. Also, the TGI in assay [1] came out at 8.83 µM; in assay [2] it was 3.96 µM; in [3], 3.63 µM; in [4], 5.66 µM; in assay [5], 3.77 µM; in [6] it was 3.69 µM. For the same compound, the TGI in assay [7] came to 3.7 µM; in [8], 2.97 µM; in assay [9] it was 4.4 µM; in assay [10], 7.82 µM.

In the case of `CCCCc1n(Cc2ccc3ccccc3n2)cc[n+]1Cc1ccc2ccccc2c1`, the GI50 in assay [1] is 1.6 µM; in assay [2] it was 1.69 µM; in assay [3], 5.07 µM; in [4], 0.251 µM; in [5], 0.22 µM; in [6], 0.635 µM. Further, the GI50 in assay [7] is 0.661 µM; in assay [8], 1.54 µM; in [9], 1.47 µM; in [10], 0.685 µM. For the same compound, the TGI was 3.89 µM in [1]; 11 µM in assay [2]; 18.1 µM in [3]; 0.755 µM in assay [4]; 1.11 µM in assay [5]; 2.04 µM in assay [6]. In addition, the TGI in assay [7] worked out at 1.9 µM; in [8], 8.48 µM; in assay [9], 4.33 µM; in [10], 2.21 µM.

As to `COc1ccccc1CNC(=O)/C=C/c1ccc(O)c(O)c1`, the GI50 was 76.1 µM in assay [1]; 64.3 µM in assay [2]; 15.6 µM in [3]; 45.2 µM in [4]; 48.4 µM in assay [5]; 22.6 µM in assay [6]. For the same compound, the GI50 was 58.3 µM in [7], above 100 µM in [8], 38.2 µM in assay [9] and 68.6 µM in [10]. Moreover, the TGI in assay [1] was above 100 µM; in assay [2], above 100 µM; in assay [3], 86.3 µM; in [4], above 100 µM; in [5] it was above 100 µM; in assay [6], above 100 µM. The TGI in assay [7], in assay [8], in [9] and in assay [10] was above 100 µM each time.

Turning to `Cn1c(=S)c2[nH]c(SCc3cccnc3)nc2n(C)c1=O`, the TGI in assay [1], in assay [2], in [3], in [4], in [5] and in [6] was above 100 µM each time. For the same compound, the TGI in assay [7], in assay [8], in assay [9] and in assay [10] was above 100 µM in each case.

Regarding `COc1ccc2c3c1OC1C4(CCC5C(C2)N(CC2CC2)CCC351)OCCO4` (centres undefined), the TGI in [1], in assay [2], in assay [3], in [4], in [5] and in assay [6] was above 100 µM throughout. Besides, the TGI in assay [7], in assay [8], in assay [9] and in assay [10] was above 100 µM in each case.

Take `COc1cc2c3c(n(CCCN=[N+]=[N-])c(=O)c2cc1OC)-c1ccc(NC(C)=O)cc1C3=O`: the GI50 was above 50 µM in assay [1]; above 50 µM in [2]; above 50 µM in assay [3]; 15 µM in [4]; above 50 µM in [5]; above 50 µM in [6]. Besides, the GI50 in [7], in assay [8], in assay [9] and in [10] was above 50 µM in each case. Moreover, the TGI in assay [1], in assay [2], in [3], in assay [4], in [5] and in assay [6] was above 50 µM in each case. Also, the TGI in assay [7], in assay [8], in assay [9] and in [10] was above 50 µM throughout.

Turning to `CC[C@H](C)C(=O)O[C@H]1C[C@@H](C)C=C2C=C[C@H](C)[C@H](CC[C@@H]3C[C@@H](O)CC(=O)O3)[C@H]21`, the GI50 in assay [1] was 12.9 µM and 6.14 µM; in assay [2] it was 12.1 µM; in assay [3], 5.46 µM and 1.47 µM; in assay [4], 15.9 µM and 19.9 µM; in assay [5], 0.172 µM and 0.102 µM; in [6] it was 0.495 µM and 0.31 µM. Besides, the GI50 in [7] was 20.2 µM and 15 µM; in assay [8], 12.5 µM and 10.3 µM; in assay [9], 7.58 µM and 6.68 µM; in [10] it was 3.02 µM. Moreover, the TGI in [1] is > 100 µM and 20.8 µM and > 30 µM; in assay [2], above 100 µM; in assay [3], above 100 µM; in assay [4] it was 60.6 µM and 50.6 µM and > 30 µM; in [5], 0.649 µM and 0.657 µM and 0.141 µM; in assay [6], 3.5 µM and 1.51 µM. The TGI is above 100 µM in assay [7]; > 100 µM and 32.9 µM and > 30 µM in assay [8]; above 100 µM in [9].

Consider `CCSc1nc(N)c(C#N)c(-c2ccc(OC)c(OC)c2)c1C#N`, for which the GI50 is 15.7 µM in assay [1]; 17 µM in [2]; above 50 µM in [3]; 21.8 µM in assay [4]; 6.49 µM in [5]; 11.7 µM in assay [6]. Moreover, the GI50 in assay [7] was 3.85 µM; in [8], above 50 µM; in assay [9], 15.4 µM; in assay [10], 15.1 µM. For the same compound, the TGI in [1] was 49.3 µM; in [2] it was above 50 µM; in assay [3], above 50 µM; in [4] it was above 50 µM; in assay [5], above 50 µM; in assay [6], 48.9 µM. Also, the TGI was 22.5 µM in [7], above 50 µM in assay [8], above 50 µM in assay [9] and above 50 µM in assay [10].

For `COc1ccccc1N1CCN(CC(O)Cn2c(=O)c3c(OC)nc(C)cc3c(=O)n2-c2ccccc2)CC1` (centres undefined), the GI50 in assay [1] is 24.3 µM; in assay [2] it was above 100 µM; in assay [3] it was above 100 µM; in assay [4], above 100 µM; in [5], 15.7 µM; in [6], 24.3 µM. The GI50 in assay [7] was above 100 µM; in [8], above 100 µM; in assay [9] it was 23.5 µM; in assay [10] it was above 100 µM. For the same compound, the TGI is 76.9 µM in [1]; above 100 µM in [2]; above 100 µM in assay [3]; above 100 µM in assay [4]; 36 µM in assay [5]; above 100 µM in assay [6]. Moreover, the TGI in [7], in [8], in assay [9] and in [10] was above 100 µM each time.

Turning to `COC(=O)C1OC(SCCN)C(O)C(O)C1O` (centres undefined), the TGI in assay [1], in [2], in assay [3], in assay [4], in [5] and in assay [6] was above 100 µM each time. The TGI in assay [7], in assay [8], in assay [9] and in [10] was above 100 µM in each case.

As for `NCCNc1nc2ccc(F)cc2c2c(=O)c3cc(F)ccc3sc12`, the GI50 is 1.59 µM in assay [1]; 1.73 µM in assay [2]; 1.78 µM in [3]; 2.28 µM in assay [4]; 1.02 µM in [5]; 1.51 µM in assay [6]. In addition, the GI50 in assay [7] was 1.77 µM; in assay [8] it was 1.77 µM; in assay [9], 5.44 µM; in assay [10], 1.68 µM. Moreover, the TGI in [1] was 2.96 µM; in [2], 3.38 µM; in assay [3], 3.37 µM; in [4], 5.21 µM; in assay [5], 4.6 µM; in assay [6], 3.08 µM. Also, the TGI was 3.29 µM in assay [7], 3.67 µM in assay [8], 20.9 µM in [9] and 3.29 µM in assay [10].

Regarding `COc1ccccc1C(=O)Nc1ccc(Cl)c(C(=O)OC(C)C)c1`, the TGI in [1] is above 100 µM; in assay [2], above 100 µM; in assay [3], above 100 µM; in assay [4], above 65.2 µM; in assay [5] it was above 100 µM; in assay [6] it was above 100 µM. Besides, the TGI in assay [7] was above 100 µM; in assay [8] it was above 83.4 µM; in assay [9], above 100 µM; in assay [10], above 100 µM.

In the case of `Fc1cccc(-c2nc(-c3c[nH]c4ncccc34)cs2)c1`, the GI50 in [1] is above 100 µM; in assay [2], 17.7 µM; in assay [3] it was above 100 µM; in assay [4] it was above 100 µM; in assay [5], 0.128 µM; in assay [6] it was 38.2 µM. The GI50 in assay [7] is above 100 µM; in assay [8] it was above 100 µM; in assay [9] it was 11.9 µM; in assay [10] it was above 100 µM. For the same compound, the TGI in assay [1] is above 100 µM; in assay [2], above 100 µM; in [3] it was above 100 µM; in assay [4], above 100 µM; in assay [5] it was 18.6 µM; in [6], above 100 µM. Also, the TGI in assay [7] was above 100 µM; in assay [8], above 100 µM; in assay [9] it was 94.3 µM; in [10], above 100 µM.

Consider `CN1CCN(c2ccc(NC(=O)c3cncnc3Nc3ccc4c(ccn4Cc4cccc(F)c4)c3)cc2)CC1`, for which the GI50 is 0.66 µM in [1]; 2.15 µM in assay [2]; 0.943 µM in [3]; 0.673 µM in assay [4]; 3.54 µM in [5]; 1.34 µM in [6]. Further, the GI50 in [7] is 0.625 µM; in [8], 3.42 µM; in assay [9], 5.09 µM; in assay [10], 3.83 µM. Moreover, the TGI was 1.37 µM in assay [1]; 6.59 µM in [2]; 4 µM in assay [3]; 1.4 µM in assay [4]; 8.42 µM in [5]; 5.03 µM in assay [6]. The TGI in [7] worked out at 1.2 µM; in [8] it was 7.32 µM; in [9], 9.78 µM; in assay [10] it was 8.15 µM.
